Results published in ChEMBL document CHEMBL1143546, “Novel heterocyclic glucocorticoids: in vitro profile and in vivo efficacy” (Bioorg Med Chem Lett, 2005).
pEC50, pIC50: −log10 of the molar value.

Experiments:
[1] = biological target: T1, Glucocorticoid receptor (Homo sapiens, UniProt P04150); test: Inhibition of GR-mediated tyrosine amino transferase activity in human HepG2 cells; type: cell-based
T1 sequence (P04150 whole entry): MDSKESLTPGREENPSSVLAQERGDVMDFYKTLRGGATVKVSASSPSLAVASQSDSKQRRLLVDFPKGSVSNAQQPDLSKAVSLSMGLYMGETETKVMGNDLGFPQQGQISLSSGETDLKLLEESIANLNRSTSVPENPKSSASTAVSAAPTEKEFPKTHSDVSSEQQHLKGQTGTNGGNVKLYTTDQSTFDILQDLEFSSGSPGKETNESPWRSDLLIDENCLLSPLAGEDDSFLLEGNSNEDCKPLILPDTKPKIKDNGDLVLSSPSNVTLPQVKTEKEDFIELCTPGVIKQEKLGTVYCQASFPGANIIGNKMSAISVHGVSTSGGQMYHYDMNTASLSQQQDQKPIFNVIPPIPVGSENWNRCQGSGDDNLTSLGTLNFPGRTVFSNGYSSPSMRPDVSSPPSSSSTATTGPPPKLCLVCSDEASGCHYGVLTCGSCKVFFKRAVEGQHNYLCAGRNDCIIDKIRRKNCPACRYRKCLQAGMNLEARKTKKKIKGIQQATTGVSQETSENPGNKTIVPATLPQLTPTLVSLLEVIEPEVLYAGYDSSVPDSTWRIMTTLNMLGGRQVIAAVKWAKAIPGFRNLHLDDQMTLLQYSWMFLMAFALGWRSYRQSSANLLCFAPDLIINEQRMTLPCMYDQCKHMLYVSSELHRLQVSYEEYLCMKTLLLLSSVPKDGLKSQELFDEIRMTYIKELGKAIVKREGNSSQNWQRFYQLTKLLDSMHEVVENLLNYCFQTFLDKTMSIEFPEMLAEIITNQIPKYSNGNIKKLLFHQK

[2] = biological target: T2, Glucocorticoid receptor (Mus musculus, UniProt P06537); test: Inhibition of mouse glutamine synthetase by GR-mediated transactivation in C2C12 cells; type: cell-based
T2 sequence (P06537 whole entry): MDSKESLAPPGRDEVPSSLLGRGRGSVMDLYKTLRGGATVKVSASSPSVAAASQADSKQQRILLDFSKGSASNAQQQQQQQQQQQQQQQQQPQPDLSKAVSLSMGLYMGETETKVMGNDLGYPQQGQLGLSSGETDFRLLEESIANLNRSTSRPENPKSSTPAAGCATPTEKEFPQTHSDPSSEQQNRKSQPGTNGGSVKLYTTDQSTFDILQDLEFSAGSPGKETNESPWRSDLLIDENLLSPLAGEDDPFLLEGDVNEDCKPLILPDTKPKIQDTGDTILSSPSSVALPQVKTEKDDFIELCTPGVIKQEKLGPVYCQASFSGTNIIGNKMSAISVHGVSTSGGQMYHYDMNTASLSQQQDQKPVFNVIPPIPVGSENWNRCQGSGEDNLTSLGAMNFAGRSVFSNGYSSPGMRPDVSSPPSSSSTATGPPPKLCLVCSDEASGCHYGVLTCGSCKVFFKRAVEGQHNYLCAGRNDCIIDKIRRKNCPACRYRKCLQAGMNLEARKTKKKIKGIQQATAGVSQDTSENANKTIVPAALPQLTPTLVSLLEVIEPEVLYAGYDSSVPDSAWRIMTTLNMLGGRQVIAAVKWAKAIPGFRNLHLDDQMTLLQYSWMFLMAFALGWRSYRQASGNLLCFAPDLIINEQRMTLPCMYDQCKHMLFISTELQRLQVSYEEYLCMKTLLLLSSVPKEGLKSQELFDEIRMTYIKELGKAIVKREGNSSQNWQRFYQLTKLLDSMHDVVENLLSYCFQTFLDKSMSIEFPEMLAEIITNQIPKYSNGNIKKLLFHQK

[3] = biological target: T2, Glucocorticoid receptor; test: GR-mediated transrepression of IL-6 in peritoneal exudate cells harvested from C57BI/6 mice; type: cell-based
[4] = biological target: T1, Glucocorticoid receptor; test: GR-mediated transrepression of IL-6 in human A549 lung carcinoma cells; type: functional, cell-based
[5] = biological target: T1, Glucocorticoid receptor; test: Inhibition of human glucocorticoid receptor alpha by displacement of [3H]dexamethasone
[6] = biological target: T3, Glucocorticoid receptor (Mus musculus) (UniProt P06537); test: Percent absolute inhibition of LPS-induced tumor necrosis factor alpha release in mice at 3 mg/kg dose; type: organism-based; design: dose 3 mg/kg
T3 sequence (whole entry): T2 sequence (P06537 whole entry)

[7] = biological target: T3, Glucocorticoid receptor (Mus musculus); test: Percent inhibition of LPS-induced tumor necrosis factor alpha release in mice relative to prednisolone at 3 mg/kg dose; type: organism-based; design: dose 3 mg/kg

SMILES	pEC50 [1]	pEC50 [2]	pEC50 [3]	pEC50 [4]	pIC50 [5]	inhibition [6] [%]	inhibition [7] [%]
C[C@]12Cc3cnn(-c4ccc(F)cc4)c3C=C1CCC[C@@H]2[C@@H](O)c1ccc(Cl)s1	5.97	7.47	7.77	7.89	8.12		
C[C@]12Cc3cnn(-c4ccc(F)cc4)c3C=C1CCC[C@@H]2[C@@H](O)c1cccs1			7.68	7.43	8.15		
C[C@]12Cc3cnn(-c4ccc(F)cc4)c3C=C1CCC[C@@H]2[C@@H](O)c1cc(Cl)sc1Cl			6.92	7.51	7.99		
C[C@]12C=CC(=O)C=C1CC[C@@H]1[C@@H]2[C@@H](O)C[C@@]2(C)[C@H]1CC[C@]2(O)C(=O)CO [PREDNISOLONE]			8.24			71	100
C[C@]12Cc3cnn(-c4ccc(F)cc4)c3C=C1CCC[C@@H]2[C@H](O)c1ccc(F)nc1	5.35	7.64	8.30	7.68	8.04		
C[C@]12Cc3cnn(-c4ccc(F)cc4)c3C=C1CCC[C@@H]2[C@@H](O)c1cc2ccccc2s1		5.92		7.72			
C[C@]12Cc3cnn(-c4ccc(F)cc4)c3C=C1CCC[C@@H]2[C@@H](O)c1ccncc1			6.67	7.42	7.63		
C[C@]12Cc3cnn(-c4ccc(F)cc4)c3C=C1CCC[C@@H]2[C@](C)(O)c1ccsc1		8.08	8.28	9.02			
C[C@]12Cc3cnn(-c4ccc(F)cc4)c3C=C1CCC[C@@H]2[C@@H](O)c1ccoc1			7.35	8.57	8.54		
C[C@]12Cc3cnn(-c4ccc(F)cc4)c3C=C1CCC[C@@H]2[C@@H](O)c1csc2ccccc12			7.27	7.74	8.29		
C[C@]12Cc3cnn(-c4ccc(F)cc4)c3C=C1CCC[C@@H]2[C@H](O)c1csc2ccccc12	6.45	8.52	7.96	8.22	8.82		
C[C@]12Cc3cnn(-c4ccc(F)cc4)c3C=C1CCC[C@@H]2[C@@H](O)c1ccc(F)nc1		6.59	7.92	7.89	7.87		
C[C@]12Cc3cnn(-c4ccc(F)cc4)c3C=C1CCC[C@@H]2[C@@H](O)Cc1ccc(F)cc1		7.77	8.43		8.34		
COc1cc([C@H](O)[C@H]2CCCC3=Cc4c(cnn4-c4ccc(F)cc4)C[C@@]32C)cc(F)c1F			7.82				
